Test results as given in US10730849B2, “Benzo[b]thiophene compounds as STING agonists” (MERCK SHARP & DOHME CORP., priority 2016, dated 2020).

Columns and labels:
[1] = target: full-length HAQ STING (Homo sapiens (Human), UniProt Q86WV6, G230A/H232R/R293Q/R71H); experiment: 3H-cGAMP filtration binding assay (HAQ STING); conditions: competition with tritiated cGAMP, HAQ STING membrane
Description: The ability of compounds to bind STING is quantified by the ability to compete with tritiated cGAMP ligand for human STING receptor membrane using a radioactive filter-binding assay. The binding assay employs STING receptor obtained from Hi-Five cell membranes overexpressing full-length HAQ STING prepared in-house and tritiated cGAMP ligand also purified in-house.
(§1) The ability of compounds to bind STING is quantified by their ability to compete with tritiated cGAMP ligand for human STING receptor membrane using a radioactive filter-binding assay. The binding assay employs STING receptor obtained from Trichoplusia ni cell membranes (T. ni; Expression Systems, cat #94-002F, www.exressionsystems.com) overexpressing full-length HAQ STING and tritiated cGAMP ligand.
The basic HAQ STING filtration assay protocol is as follows:
Compound and membrane then preincubated for 60 min at RT to allow compound binding to equilibrate. Following equilibration, 8 nM of [^3H]c-GAMP ligand was prepared by diluting into assay buffer, and 50 uL of this working stock was then manually added to each well of the assay plate. […] The filter plates were then dried at 55° C. for 30 min using a pressurized oven before 30 uL of ULTIMA GOLD F scintillate was added to each well. Tritium levels for each reaction well were then measured using a PerkinElmer TopCount plate reader.
(§2) After normalization to controls, the percent activity for each compound concentration was calculated by measuring the amount of remaining radioactivity. The plot of percent activity versus the log of compound concentration was fit with a 4-parameter dose response equation to calculate EC50 values.

[2] = target: full-length WT STING (Homo sapiens (Human), UniProt Q86WV6, H232R); experiment: 3H-cGAMP filtration binding assay (WT STING); conditions: WT STING, compound at 20 uM
Description: as §1, with “www.expressionsystems.com)” for “www.exressionsystems.com)”, “WT” for “HAQ”
The basic WT STING filtration assay protocol is as follows:
The filter plates were then dried at 55° C. for 30 min using a pressurized VWR oven before 30 uL of ULTIMA GOLD F scintillate was added to each well. Tritium levels for each reaction well were then measured using a PerkinElmer TopCount plate reader.
as §2

[3] = system: THP1 cells; experiment: IFN-β secretion in THP1 cell culture (5 h); type: cell-based, human; conditions: relative to 30 uM cGAMP
Experimental: The ability of compounds to stimulate the secretion of interferon-beta from THP1 cells was measured using a human IFN-3 AlphaLISA kit (Perkin Elmer, Cat. No. AL265F). The basic protocol is as follows:
The cell viability and count was ascertained using a Beckman Coulter V-Cell XR cell counter. The cells suspension was centrifuged at 200×g for 5 min at RT. Cells were resuspended to a density of 0.8×10^6/mL in 37° C. assay medium. Subsequent liquid transfers were performed using either a Matrix electronic multichannel pipette or an Agilent Bravo Automated Liquid Handling Platform.
The assay was started by dispensing 40 μL of the previously prepared cell suspension into the wells of the plate containing compounds. After 5 h incubation at 37° C., 5% CO2 in a humidified atmosphere, the plate of cells and compounds was centrifuged at 200×g for 5 min at RT. […] To these supernatant-containing wells was added 10 μL of 5× Anti-Analyte Acceptor beads ([…] of AlphaLISA HiBlock Buffer) and incubated for 30 min at RT while shaking on an orbital plate shaker. To each well was added 10 μL of 5× Biotinylated Antibody Anti-analyte (5 nM in AlphaLISA HiBlock Buffer) and incubated on an orbital plate shaker for 60 min at RT or overnight at 4° C. To each well was added 25 μL of 2× SA-Donor beads ([…] in AlphaLISA HiBlock Buffer) and incubated for 30-45 min at RT in the dark while shaking on an orbital plate shaker. The plate was then read on a Perkin Elmer Envision (λex=680 nm, […]). The percent effect of the AlphaLISA signal at each compound concentration was calculated based on 30 uM cGAMP positive controls and 0.3% DMSO negative controls. The plot of percent effect versus the log of compound concentration was fit with a 4-parameter concentration response equation to calculate EC50 values.
Compounds of the disclosure were evaluated for IFN-3 secretion in THP1 cell culture as described above.

Chain of full-length HAQ STING (Q86WV6 other isoform, or with tags, fused parts or gaps, stated change not applied): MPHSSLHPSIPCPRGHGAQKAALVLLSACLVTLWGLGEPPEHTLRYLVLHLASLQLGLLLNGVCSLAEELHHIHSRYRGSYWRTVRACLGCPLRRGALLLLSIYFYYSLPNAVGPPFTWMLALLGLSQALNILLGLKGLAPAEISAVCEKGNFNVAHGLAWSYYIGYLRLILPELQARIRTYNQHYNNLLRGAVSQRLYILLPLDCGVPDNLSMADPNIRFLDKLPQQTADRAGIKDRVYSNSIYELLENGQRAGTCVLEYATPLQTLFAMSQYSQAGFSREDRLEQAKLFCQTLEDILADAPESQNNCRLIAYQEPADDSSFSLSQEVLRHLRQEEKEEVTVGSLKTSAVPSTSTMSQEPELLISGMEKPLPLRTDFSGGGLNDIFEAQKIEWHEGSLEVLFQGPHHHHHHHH
Chain of full-length WT STING (Q86WV6 other isoform, or with tags, fused parts or gaps H232R (already in the parent)): as the sequence (Q86WV6 other isoform, or with tags, fused parts or gaps, stated change not applied) above, with H71R, A230G, Q293R counted along it

EC50 [1]: 5.94 µM
% Inh @ 20 uM [2]: 10% Inh @ 20 μM
Substance: (S)-4-(5,6-dimethylbenzo [b]thiophen-2-y1)- 2-methyl-4- oxobutanoic acid [Example 31]
% Effect at 30 μM relative to 2’3’-cGAMP [3]: 24%
